The structures appear in SMILES notation. Values after ≈ are worked out from the molar mass of the structure shown. Counter-ions that a name gives are not always drawn. Like-named read-outs stand apart in the source and are kept apart here.

The melting point is the temperature, or range, at which the solid turns liquid. The solubility is the dissolved amount per volume that the medium holds. Low values mean little dissolved substance, high ones much dissolved substance.

One data set relates to C57BL6 mice. Description: Acute acetaminophen-induced hepatotoxicity in mice (plasma ALT and AST). As for the experimental part: Hepatotoxicity was evaluated by measuring standard plasma enzymatic markers (Alanine transaminase (ALT) and Aspartate transaminase (AST)) of liver damage.
Another data set can be described thus: physchem. To be noted: for solubility: water, Solubility in water at room temperature. As for the experimental part: To a stirred colorless solution of (S)-4-acetamidophenyl 2-(tert-butoxycarbonylamino)-4-(methylthio)butanoate (0.5 g, 1.3 mmol) in dioxane (10 mL) was added 40 mL of HCl in dioxane (4M).
The conditions of data set [1]: cited from earlier work.

Molecule `CC(=O)Nc1ccc(OC(=O)C(N)CSSCC(N)C(=O)O)cc1.Cl.Cl` (centres unmarked) registered a melting point of 230 to 237 °C.
On to `CSCC[C@H](N)C(=O)Oc1ccc(NC(C)=O)cc1` (as salt: HCl) [Compound (II-A), (S)-4-acetamidophenyl 2-amino-4-(methylthio)butanoate], for which the melting point lay within 225 to 228 °C.
In turn, `CC(=O)Nc1ccc(OC(=O)C(N)CSSCC(N)C(=O)Oc2ccc(NC(C)=O)cc2)cc1` (centres unmarked) (as salt: trifluoroacetate) [Example 4, bis(4-acetamidophenyl)3,3′-disulfanediylbis(2-aminopropanoate)di(trifluoroacetate)] yielded a melting point greater than 300 °C.
Regarding `CC(=O)Nc1ccc(O)cc1` [Acetaminophen, N-(4-hydroxyphenyl)acetamide], in the data set with C57BL6 mice (mouse, in vivo), the “Treated mice with elevated ALT levels” value was determined as 83% and the “Treated mice with increased AST levels” value is recorded as “all”. This molecule also returned a solubility in “physchem” of roughly 14.3 mg/mL (≈ 94.6 mM).
As to `CSCC[C@H](N)C(=O)Oc1ccc(NC(C)=O)cc1` [Compound (II-A), (S)-4-acetamidophenyl 2-amino-4-(methylthio)butanoate], the solubility in “physchem” stood at 500 mg/mL (≈ 1770 mM).
For `CC(=O)Nc1ccc(OC(=O)C(N)CSSCC(NC(C)=O)C(=O)O)cc1` (centres unmarked) [Compound II-D sodium salt, 2-acetamido-3-((3-(4-acetamidophenoxy)-2-amino-3-oxopropyl)disulfanyl)propanoic acid], the “Solubility in water at room temperature” value in “physchem” stood at 52 mg/mL.
`CC(=O)Nc1ccc(OC(=O)C(CSSCC(NC(C)=O)C(=O)O)NC(C)=O)cc1` (centres unmarked) [Example 2, 2-acetamido-3-((2-acetamido-3-(4-acetamidophenoxy)-3-oxopropyl)disulfanyl)propanoic acid] gave a melting point of 95 to 99 °C.
In “physchem”, `CC(=O)Nc1ccc(OC(=O)C(N)CSSCC(NC(C)=O)C(=O)O)cc1` (centres unmarked) [II-D, 2-acetamido-3-((3-(4-acetamidophenoxy)-2-amino-3-oxopropyl)disulfanyl)propanoic acid] gave a solubility of 47 mg/mL (≈ 113 mM).
For the molecule `O=C1N[C@H](C(=O)O)CS1` [L-2-oxothiazolidine-4-carboxylate], the GSH tissue levels in data set [1] (administered 30 minutes post-acetaminophen administration) was 6.1 μmol/g of tissue; in data set [1] (administered 120 minutes post-acetaminophen administration) it was 5.3 μmol/g of tissue.
For `CSCC[C@H](N)C(=O)O` [l-methionine], the “AST and ALT increases in acetaminophen-treated animals” value in the data set with C57BL6 mice (co-administration of equimolar doses of l-methionine and acetaminophen) is given as “significantly reduced”. For the same molecule, the “Serum AST and ALT levels” value with C57BL6 mice (oral l-methionine alone (167 mg/kg)) is given as “did not affect”.

(Values after patent US9951001B2 (Acorda Therapeutics, Inc., priority 2008, dated 2018).)
